Test results taken from ChEMBL document CHEMBL1201862, “PubChem BioAssay data set” (2004).
The source made the active and inactive calls.

Assays:
cells [1] = type: functional, cell-based
cells [2] = type: functional, cell-based; remark: listed apart in the source
[3] = target: T1, Trace amine-associated receptor 1 (Homo sapiens, UniProt Q96RJ0); assay: Fluorescence-based cell-based high throughput dose response assay to identify agonists of the human trace amine associated receptor 1 (TAAR1).; type: functional
T1 sequence (Q96RJ0 whole entry): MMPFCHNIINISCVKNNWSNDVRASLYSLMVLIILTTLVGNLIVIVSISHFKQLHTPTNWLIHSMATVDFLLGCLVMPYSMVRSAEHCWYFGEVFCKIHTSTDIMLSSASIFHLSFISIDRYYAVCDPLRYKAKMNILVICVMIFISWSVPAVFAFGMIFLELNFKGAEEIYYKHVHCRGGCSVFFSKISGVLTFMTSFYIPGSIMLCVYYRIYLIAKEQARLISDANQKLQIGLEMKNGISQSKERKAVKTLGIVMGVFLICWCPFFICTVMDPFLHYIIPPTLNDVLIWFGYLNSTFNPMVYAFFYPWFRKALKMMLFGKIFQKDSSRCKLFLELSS

[4] = viability of PTEN-deleted HCT116 cells – cell-based, HCT116 PTEN knockout, dose response (AID 1047); type: functional;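 note: HCT116 colon tumor cells with PTEN knocked out; cells exposed to compound for 60 hours before readout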
[5] = viability loss of HPDE-C7K cells – cell-based, fluorescence, HTS, primary screen (AID 431); type: functional; details: Homo sapiens
[6] = HPDE-C7 pancreatic duct cell viability loss – fluorescence, HTS (AID 430); type: functional, cell-based; details: Homo sapiens
[7] = target: T1, Trace amine-associated receptor 1; assay: Counterscreen for agonists of the human trace amine associated receptor 1 (hTAAR1): Fluorescence-based cell-based high throughput dose response assay to identify hTAAR1 agonist that also desensitize TAAR1 receptor response.; type: functional
[8] = viability of HCT116 lacking mutant beta-catenin – cell-based, human colon tumor, dose response (AID 1045); type: functional;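 note: HCT116 colon tumor cells with beta catenin knocked out; cells exposed to compound for 60 hours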
[9] = THP-1 cell cytotoxicity, dose response, cytotoxicity control for non-replicating M. tuberculosis project (AID 489025); type: functional
[10] = Vero E6 cell cytotoxicity, dose response, cytotoxicity control for non-replicating M. tuberculosis project, secondary assay (AID 492998); type: functional, VeroE6; details: Vero C1008
Albumin = Albumin (Bos taurus, UniProt P02769); assay: Counterscreen for inhibitors of T-cell receptor (TCR)-CD3 interaction: Fluorescence-based biochemical high throughput dose response assay to identify inhibitors of T-cell receptor (TCR)-CD3 interaction using a TAMRA-labeled BSA probe.; type: functional
cells [11] = type: functional
[12] = fluconazole-exposed Candida albicans growth modulators – fluorescence, retest, confirmation (AID 2467); type: functional, cell-based
[13] = NIH-3T3 fibroblast cytotoxicity, dose response, cytotoxicity control, cell-based, fluorescence, Alamar Blue, secondary assay (AID 2327); type: functional;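 note: NIH-3T3 mouse fibroblasts cultured with fluconazole at 8 µg/mL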
[14] = HepG2 cell cytotoxicity, dose response, cytotoxicity control for non-replicating M. tuberculosis project (AID 489018); type: functional; details: Mycobacterium tuberculosis
Beta-galactosidase = Beta-galactosidase (Escherichia coli, UniProt Q8VNN2); assay: detection-enzyme interference by beta-gal modulators – biochemical, E. coli enzyme, set 3, artefact control for CCR6 antagonist project, dose response (AID 504712); type: functional
Paired box protein Pax-8 = Paired box protein Pax-8 (Homo sapiens, UniProt Q06710); assay: PAX8 transcriptional activity inhibition in RMG-I – RMG-I cells, luciferase, cherry-pick, dose response (AID 687027); type: functional, cell-based;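 note: luciferase reporter driven by Pax8 target thyroperoxidase promoter measured by SteadyGlo luminescence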
CHO = CHO cell viability loss, potency – luminescence, cytotoxicity control for TLR9-MyD88 binding inhibitor project, dose response (AID 588339); type: functional, cell-based, hamster; details: Cricetulus griseus;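 note: CHO cells stably coexpressing TLR9 and MyD88 fusions from primary screen; compound exposure lasted 48 hours before viability readout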
Beta Lactamase [15] = target: T2, Beta Lactamase (Pseudomonas aeruginosa, UniProt Q932Y6); assay: BLA reporter interference, concentration series – BLA reporter cells, FRET fluorescence, artefact control for NOD2-RIPK2 interaction inhibitor project, dose response (AID 651552); type: functional, cell-based
Beta Lactamase [16] = target: T2, Beta Lactamase; assay: BLA reporter interference, concentration series – BLA reporter cells, FRET fluorescence, artefact control for TLR9-MyD88 binding inhibitor project, dose response (AID 588341); type: cell-based;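 note: cell based assay in CHO-K1 cells stably expressing beta-lactamase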
[17] = Fluorescence-based cell-based high throughput dose response assay for inhibitors of the interaction of nucleotide-binding oligomerization domain containing 2 (NOD2) and the receptor-interacting serine-threonine kinase 2 (RIPK2).; type: functional; details: Homo sapiens
[18] = target: Heat shock protein HSP 90-alpha (Homo sapiens, UniProt P07900); type: functional, organism-based
Protein Tat = target: T3, Protein Tat (Human immunodeficiency virus type 1 group M subtype B (isolate HXB2)(HIV-1), UniProt P04608); type: functional;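 note: tat binding to TAR RNA read out by fluorescence polarization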
T3 sequence (P04608 whole entry): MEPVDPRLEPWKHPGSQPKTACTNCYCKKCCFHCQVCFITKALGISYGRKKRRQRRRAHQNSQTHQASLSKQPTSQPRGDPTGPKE

[19] = target: Glucose-6-phosphate 1-dehydrogenase (Homo sapiens, UniProt P11413); assay: inhibition of Homo sapiens G6PD, dose series – biochemical, fluorescence, selectivity assay for P. falciparum G6PD inhibitor project, dose response (AID 504792); type: functional
[20] = general cell-killing toxicity readout – plate reader, dry powder samples, cytotoxicity control for PAX8 inhibitor project, dose response (AID 743021); type: functional, cell-based
Vero = assay: viability of Vero cells under compound – cytotoxicity control for flavivirus capping enzyme inhibitors (AID 588742); type: functional; details: Chlorocebus sabaeus
[21] = viability loss in THP-1 monocytes – THP-1 cells, cytotoxicity control for Vif-APOBEC3G degradation inhibitor project, dose response (AID 1117359); type: functional; details: THP-1
Genome polyprotein = Genome polyprotein (dengue virus type 2, UniProt P29990); assay: flavivirus cap methylation enzyme inhibition – biochemical, confirmation dose response, primary screen (AID 588689); type: functional
[22] = human cervical cancer cell viability loss – 24 h, plate reader, dry powder, cytotoxicity control, dose response (AID 686928); type: functional, cell-based; details: HeLa
[23] = Trypanosoma cruzi growth suppression in host cells – NIH3T3 host cells, beta-gal luminescence, confirmation (AID 2044); type: functional, cell-based;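 note: intracellular parasites grown in NIH/3T3 mouse fibroblasts as host cells; luminescent beta-galactosidase reporter signal from transgenic T. cruzi replicating inside host cells; inhibitors lower the luminescence signal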
[24] = system: Streptococcus sp. 'group A'; assay: Streptococcus pyogenes SK(-)GAS viability under kanamycin – luminescence, BacTiterGlo, confirmation, counter-screen for streptokinase expression inhibitor project, dose response (AID 1900); type: functional, organism-based
INS1 = assay: INS-1E survival protection against cytokine death – cell-based, luminescence, retest, dose response (AID 449756); type: functional; details: Rattus norvegicus;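 note: cell death triggered by IL-1 beta plus TNF-alpha plus IFN-gamma mixture; protective hits raise ATP signal compared with cytokine alone wells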
Streptokinase A = target: T4, Streptokinase A (Streptococcus pyogenes serotype M1, UniProt P10520); assay: viability-normalized secreted streptokinase activity reduction – plasminogen activation absorbance, OD405, dose response (AID 1914); type: functional, Streptococcus pyogenes M1 GAS;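 note: secreted streptokinase activity via plasminogen activation per viability signal from cell pellet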
T4 sequence (P10520 whole entry): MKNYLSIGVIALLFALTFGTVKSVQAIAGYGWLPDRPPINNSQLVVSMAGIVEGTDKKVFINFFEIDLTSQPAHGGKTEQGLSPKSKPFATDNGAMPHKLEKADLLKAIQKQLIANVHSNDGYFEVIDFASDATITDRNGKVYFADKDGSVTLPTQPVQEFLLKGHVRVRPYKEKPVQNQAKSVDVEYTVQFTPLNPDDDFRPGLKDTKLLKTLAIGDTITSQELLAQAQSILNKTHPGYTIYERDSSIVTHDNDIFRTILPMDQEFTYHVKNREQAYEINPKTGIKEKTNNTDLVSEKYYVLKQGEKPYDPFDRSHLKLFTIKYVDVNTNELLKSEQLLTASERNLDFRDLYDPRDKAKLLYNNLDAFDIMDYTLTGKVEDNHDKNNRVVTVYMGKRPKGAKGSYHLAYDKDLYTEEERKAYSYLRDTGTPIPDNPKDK

Streptococcus = assay: GAS UMAA2166 growth inhibition – luminescence, BacTiterGlo, counter-screen for streptokinase expression inhibitor project, dose response (AID 1915); type: functional, organism-based;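 note: potency for reduction of bacterial viability or growth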
[25] = NIH3T3 cell viability loss – ATP luminescence, mouse fibroblasts, counter-screen, dose response (AID 2010); type: functional, cell-based;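 note: cells exposed to compound for about 90 hours before reading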

Albumin, sequence (P02769 whole entry): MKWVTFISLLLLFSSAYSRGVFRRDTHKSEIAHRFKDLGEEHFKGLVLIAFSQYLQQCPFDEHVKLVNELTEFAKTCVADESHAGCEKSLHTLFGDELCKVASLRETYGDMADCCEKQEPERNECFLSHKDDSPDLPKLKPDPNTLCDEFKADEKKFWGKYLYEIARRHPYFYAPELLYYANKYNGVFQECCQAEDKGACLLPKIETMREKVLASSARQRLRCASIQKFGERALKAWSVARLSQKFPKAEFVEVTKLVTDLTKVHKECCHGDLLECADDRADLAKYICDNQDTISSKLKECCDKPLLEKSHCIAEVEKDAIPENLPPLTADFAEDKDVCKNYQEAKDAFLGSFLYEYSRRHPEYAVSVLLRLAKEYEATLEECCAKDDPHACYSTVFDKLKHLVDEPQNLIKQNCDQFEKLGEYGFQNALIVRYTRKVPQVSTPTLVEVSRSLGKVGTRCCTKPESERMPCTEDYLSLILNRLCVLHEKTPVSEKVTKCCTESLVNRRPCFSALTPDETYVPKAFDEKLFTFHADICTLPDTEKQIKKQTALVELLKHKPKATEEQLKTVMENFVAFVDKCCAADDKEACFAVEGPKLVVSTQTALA
T2 sequence (Q932Y6 whole entry): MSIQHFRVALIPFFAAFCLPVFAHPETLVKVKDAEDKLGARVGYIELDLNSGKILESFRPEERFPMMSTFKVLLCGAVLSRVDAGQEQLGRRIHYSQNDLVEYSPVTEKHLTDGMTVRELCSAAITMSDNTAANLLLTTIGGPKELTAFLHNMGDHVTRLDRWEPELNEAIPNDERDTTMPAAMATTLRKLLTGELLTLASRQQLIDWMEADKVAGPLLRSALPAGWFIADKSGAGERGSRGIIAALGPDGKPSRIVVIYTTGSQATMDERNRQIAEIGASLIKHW
Paired box protein Pax-8, sequence (Q06710 whole entry, the tested form may be a part): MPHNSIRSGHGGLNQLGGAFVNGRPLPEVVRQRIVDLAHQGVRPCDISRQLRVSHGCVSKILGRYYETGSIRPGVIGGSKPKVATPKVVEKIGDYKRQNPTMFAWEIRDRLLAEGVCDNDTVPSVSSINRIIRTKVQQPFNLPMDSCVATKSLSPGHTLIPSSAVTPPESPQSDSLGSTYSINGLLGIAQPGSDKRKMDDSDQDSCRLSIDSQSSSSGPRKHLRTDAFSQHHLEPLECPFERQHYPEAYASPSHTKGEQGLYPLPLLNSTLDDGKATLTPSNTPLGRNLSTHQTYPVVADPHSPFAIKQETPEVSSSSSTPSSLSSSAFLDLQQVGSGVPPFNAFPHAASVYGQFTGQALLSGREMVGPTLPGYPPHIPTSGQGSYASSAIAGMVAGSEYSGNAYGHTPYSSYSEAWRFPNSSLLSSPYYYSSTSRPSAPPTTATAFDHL
Genome polyprotein, sequence (P29990 2492-3391 limits assumed): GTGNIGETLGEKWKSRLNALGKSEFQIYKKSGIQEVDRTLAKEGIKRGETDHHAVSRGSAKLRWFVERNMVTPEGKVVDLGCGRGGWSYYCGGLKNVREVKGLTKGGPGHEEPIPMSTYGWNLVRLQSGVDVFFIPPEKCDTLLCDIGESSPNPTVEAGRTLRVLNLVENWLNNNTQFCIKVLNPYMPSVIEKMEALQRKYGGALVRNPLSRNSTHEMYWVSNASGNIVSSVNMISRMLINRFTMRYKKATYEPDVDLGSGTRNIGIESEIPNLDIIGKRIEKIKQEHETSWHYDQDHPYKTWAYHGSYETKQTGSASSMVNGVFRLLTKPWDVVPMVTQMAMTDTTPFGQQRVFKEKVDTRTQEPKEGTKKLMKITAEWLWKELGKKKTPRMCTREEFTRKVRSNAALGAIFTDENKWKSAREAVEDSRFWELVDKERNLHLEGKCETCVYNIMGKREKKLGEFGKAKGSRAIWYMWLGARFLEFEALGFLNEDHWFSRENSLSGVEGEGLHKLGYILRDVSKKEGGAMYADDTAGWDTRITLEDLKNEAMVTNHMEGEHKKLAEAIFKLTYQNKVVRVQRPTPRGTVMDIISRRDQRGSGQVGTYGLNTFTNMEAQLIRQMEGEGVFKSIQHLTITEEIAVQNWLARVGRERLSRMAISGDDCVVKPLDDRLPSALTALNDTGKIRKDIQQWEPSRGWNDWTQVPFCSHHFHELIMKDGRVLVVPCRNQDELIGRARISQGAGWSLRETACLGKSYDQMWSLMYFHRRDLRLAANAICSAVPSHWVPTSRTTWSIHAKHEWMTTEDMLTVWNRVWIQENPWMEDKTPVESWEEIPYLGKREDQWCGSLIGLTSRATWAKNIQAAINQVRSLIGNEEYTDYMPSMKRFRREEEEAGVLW
Glucose-6-phosphate 1-dehydrogenase, sequence (P11413 whole entry): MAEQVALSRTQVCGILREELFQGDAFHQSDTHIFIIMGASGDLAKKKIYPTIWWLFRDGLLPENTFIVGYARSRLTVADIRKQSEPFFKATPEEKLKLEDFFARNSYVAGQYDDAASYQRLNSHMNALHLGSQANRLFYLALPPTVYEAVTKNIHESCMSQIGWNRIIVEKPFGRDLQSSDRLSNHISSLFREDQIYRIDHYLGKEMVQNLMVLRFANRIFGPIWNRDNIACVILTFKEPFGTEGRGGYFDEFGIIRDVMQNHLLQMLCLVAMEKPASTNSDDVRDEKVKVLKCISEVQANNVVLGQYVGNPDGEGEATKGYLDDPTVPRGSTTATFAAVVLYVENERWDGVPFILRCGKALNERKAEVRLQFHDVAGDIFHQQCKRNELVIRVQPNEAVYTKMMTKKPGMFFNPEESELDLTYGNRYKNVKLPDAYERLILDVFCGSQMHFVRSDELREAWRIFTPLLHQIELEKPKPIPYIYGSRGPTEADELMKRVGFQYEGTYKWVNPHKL
Beta-galactosidase, sequence (Q8VNN2 whole entry): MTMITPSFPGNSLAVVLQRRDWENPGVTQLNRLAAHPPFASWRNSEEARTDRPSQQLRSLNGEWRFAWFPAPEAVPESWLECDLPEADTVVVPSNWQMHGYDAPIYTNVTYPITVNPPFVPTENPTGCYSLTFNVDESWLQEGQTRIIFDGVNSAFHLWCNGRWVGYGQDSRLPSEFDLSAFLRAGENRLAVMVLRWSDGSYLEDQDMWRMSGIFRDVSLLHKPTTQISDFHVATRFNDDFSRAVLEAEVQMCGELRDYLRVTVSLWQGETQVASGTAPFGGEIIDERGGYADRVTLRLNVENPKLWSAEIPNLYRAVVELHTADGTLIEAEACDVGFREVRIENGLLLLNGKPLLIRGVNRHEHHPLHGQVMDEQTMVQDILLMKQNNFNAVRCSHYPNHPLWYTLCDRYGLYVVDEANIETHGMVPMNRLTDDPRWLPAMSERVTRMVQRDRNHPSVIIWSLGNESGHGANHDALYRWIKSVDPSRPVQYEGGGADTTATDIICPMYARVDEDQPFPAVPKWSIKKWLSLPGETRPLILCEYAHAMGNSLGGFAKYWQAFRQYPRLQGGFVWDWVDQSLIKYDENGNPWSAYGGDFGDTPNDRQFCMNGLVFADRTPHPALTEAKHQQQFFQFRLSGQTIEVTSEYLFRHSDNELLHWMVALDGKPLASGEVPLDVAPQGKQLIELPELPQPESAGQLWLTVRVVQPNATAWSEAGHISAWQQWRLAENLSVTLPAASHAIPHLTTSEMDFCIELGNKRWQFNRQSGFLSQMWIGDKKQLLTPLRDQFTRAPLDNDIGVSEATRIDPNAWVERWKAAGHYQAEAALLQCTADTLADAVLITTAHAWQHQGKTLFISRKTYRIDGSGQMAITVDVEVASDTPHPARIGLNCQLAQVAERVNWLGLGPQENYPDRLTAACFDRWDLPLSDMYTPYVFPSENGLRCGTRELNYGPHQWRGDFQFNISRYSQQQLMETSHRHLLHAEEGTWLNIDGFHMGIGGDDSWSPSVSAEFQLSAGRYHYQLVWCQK

## O=C(CCN1CCC(c2ccccc2)C1)c1cccs1 (stereo unspecified)
Cells [1]
  IC50: > 29.9 µM (inactive)
Cells [2]
  EC50: > 29.9 µM (inactive)
[3]
  EC50: 0.157 µM (active)
[4]
  EC50: 34.1 µM (active)
[5]
  EC50: > 20 µM (not active)
[6]
  EC50: > 20 µM (not active)
[7]
  IC50: 1.49 µM (active)
[8]
  EC50: 29.3 µM (active)

## CCCCC(CC)CNC(=O)C1C2C=CC(C2)C1C(=O)O (stereo unspecified)
Cells [1]
  IC50: > 29.9 µM (inactive)
Cells [2]
  EC50: > 29.9 µM (inactive)
[3]
  EC50: > 29.9 µM (inactive)
[7]
  IC50: > 29.9 µM (inactive)

## COc1ccc(C(=O)NNC(=S)NC(=O)c2cccc([N+](=O)[O-])c2)cc1
[9]
  CC50: 19.3 µM (active)
[10]
  CC50: 17.9 µM (active)
Albumin
  IC50: > 94.1 µM (inactive)
Cells [11]
  IC50: 18.9 µM (active)
[12]
  EC50: 2.63 µM (active)
[13]
  EC50: > 160 µM (inactive)
[14]
  CC50: > 20 µM (active)

## CC1=C(O)C(=O)C=C2C1=CC=C1C2(C)CCC2(C)C3CC(C)(C(=O)O)CCC3(C)CCC12C (stereo unspecified)
Beta-galactosidase
  IC50: > 66.6 µM (inactive)
Paired box protein Pax-8
  AC50: 2.41 µM (active)
CHO
  IC50: 0.619 µM (active)
Beta Lactamase [15]
  IC50: 38.1 µM (inactive)
Beta Lactamase [16]
  IC50: 21.4 µM (inactive)
[17]
  IC50: 0.205 µM (active)
[18]
  AC50: 1.41 µM (active)
Protein Tat
  IC50: > 100 µM (active)
[19]
  IC50: > 80 µM (inactive)
[20]
  AC50: 26.1 µM (active)
Vero
  CC50: 1.43 µM (active)
[21]
  CC50: 1.01 µM (active)
Genome polyprotein
  IC50: 19.7 µM (active)

## Cc1cc2cc3c(NC(=O)c4ccco4)nn(C)c3nc2cc1C
[22]
  AC50: 147 µM (active)

## O=C1C(=O)N(Cc2cccc(Cl)c2)c2ccccc21
[22]
  AC50: 124 µM (active)

## C/C(=N\NC(=O)c1nnn(-c2nonc2N)c1CN(C)c1ccccc1)c1ccccc1O
Albumin
  IC50: > 94.1 µM (inactive)
[23]
  EC50: 0.403 µM (active)
[24]
  EC50: 5.37 µM (active)
INS1
  AC50: 2.15 µM (active)
Streptokinase A
  EC50: > 150 µM (not active)
Streptococcus
  EC50: 5.74 µM (active)
[25]
  EC50: 5.57 µM (active)
